Source: patent publication US11905504B2, “Body cube and process for culturing tissue” (Government of the United States of America, as represented …, priority 2020, dated 2024)
Entries after “also recorded” stand apart in the source; their conditions may differ.

How the values were obtained:
HepG2/C3A liver cells [1] = assay: Albumin synthesis by ELISA in cell culture medium of the body cube; format: cell-based, human; conditions: drugs added to the cube; compared to control without drug
HepG2/C3A liver cells [2] = assay: Cell viability stain of liver cells after 72 h co-culture in the body cube; format: cell-based, human; conditions: 72 h four-tissue co-culture in body cube, 80 μL recirculating medium; compared to control without drug
HepG2/C3A liver cells [3] = format: cell-based
Protocol: After 24 h, the cell-loaded 3D scaffolds were aseptically transferred into the tissue chambers of the appropriate tissues chip. The chips were then placed on top of each other, so that the back of one tissue chamber closed the opening of the tissue chip below it. The tissue chip stack was then inserted into the holder. The two reservoirs of the cube were filled with 32.5 μL of EMEM (containing a volume fraction of 10% FBS) each, and the device was placed onto a rocker platform that tilted back and forth at an angle of 45°. The platform changed its tilt from 45° to −45° every 60 s continuously for 72 h. Culture medium was collected and replaced with fresh medium after 1 h, 16 h, 24 h, 40 h, 48 h, and 64 h. The total amount of blood surrogate (i.e. the amount of cell culture medium that we consider blood surrogate) inside the system consisted of 2×32.5 μL (medium in the reservoirs), plus 15 μL (medium inside the microfluidic channels that deliver medium to the tissue culture chambers).
To estimate cell death during co-culture, we measured AST concentrations in the cell culture medium recovered from the devices after 1 h, 16 h, 40 h and 64 h of co-culture. The AST activity was measured with an assay kit. Briefly, standard samples and medium samples were added to the 96 well plate. We then added 100 μL of working solution to each well and mixed both solutions by gently tapping the plate. The plate was then incubated inside a plate reader in the dark, at 37° C. […] We then selected the initial absorbance value inside the linear range and calculated the AST concentrations using the protocol given in the kit. The results are expressed as μg per million cells produced in relation to a 1 h baseline measurement.
Similar to the baseline experiments described above, we recovered cell cultures after 72 h of co-culture from the device.

HepG2/C3A liver cells [4] = assay: Urea production in collected cell culture medium of the body cube; format: cell-based, human

Cc1c(C)c2c(c(C)c1O)CCC(C)(COc1ccc(CC3SC(=O)NC3=O)cc1)O2 (stereo not shown) [troglitazone]
albumin production (HepG2/C3A liver cells [1]): not albumin production was decreased | cell viability in the liver chamber (viability stain, fluorescence images) (HepG2/C3A liver cells [2]): significant liver damage; also recorded: expected cell death; also recorded: significantly lowered cell viability | cytosolic enzymes released vs cultures not exposed to drugs (HepG2/C3A liver cells [3]; after 40 h of exposure): significantly larger amounts | cytosolic enzyme concentration in the medium vs control cultures (HepG2/C3A liver cells [3]; after 48 h): similar | AST in the cell culture medium (HepG2/C3A liver cells [3]; body cube co-culture, compared to control without drug): significantly higher; also recorded: temporary increase of AST | metabolic activity of the tissues (HepG2/C3A liver cells [4]; body cube co-culture challenged with drug): decrease in metabolic activity | urea production (HepG2/C3A liver cells [4]; drugs added to the cube, compared to control without drug): decreased
